Counter-ions that a name gives are not always drawn.
Assays:
[1] = biological target: T1, human TYK2 kinase domain (JH1) (Homo sapiens, UniProt P29597); assay: JH1 biochemical assay for TYK2 (ADP-Glo kinase assay, recombinant JH1 catalytic domain, JAK3-974 peptide, 10 μM ATP)
T1 construct: recombinantly generated catalytic kinase (also known as JH1) domain of human JAK1, JAK2, JAK3 and TYK2
T1 sequence (P29597 897-1176 limits assumed): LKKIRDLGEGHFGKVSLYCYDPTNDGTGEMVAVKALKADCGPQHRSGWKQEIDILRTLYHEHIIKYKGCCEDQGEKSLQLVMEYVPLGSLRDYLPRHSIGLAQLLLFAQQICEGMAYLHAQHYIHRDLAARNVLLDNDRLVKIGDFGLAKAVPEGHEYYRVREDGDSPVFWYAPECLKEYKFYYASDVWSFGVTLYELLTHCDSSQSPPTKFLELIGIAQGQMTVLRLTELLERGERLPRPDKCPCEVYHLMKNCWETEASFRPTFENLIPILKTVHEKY
Description: (§1) Compounds of the disclosure were assessed for their ability to inhibit TYK2, JAK1, JAK2, and JAK3 activity. The inhibitory properties of the compounds of the disclosure described herein can be evidenced by testing in any one of the following protocols.
(§2) The kinase activity of recombinantly generated catalytic kinase (also known as JH1) domain of human JAK1, JAK2, JAK3 and TYK2 were evaluated in a plate-based assay using the ADP-Glo™ Kinase Assay platform. Specifically, 4 nM of recombinant JAK1 kinase domain is used to phosphorylate 50 μM of a JAK3-342 (sequence ALVDGYFRLTT) peptide in the presence of 35 μM ATP. Catalytic activities of recombinant JAK2, JAK3 and TYK2 kinase domain (0.2, 0.3 and 2 nM, respectively) are evaluated by the phosphorylation status of the JAK3-974 (50 μM; sequence LPLDKDYYVVR) peptide with the addition of ATP (15, 4 and 10 μM, respectively). The reactions proceed for 100 minutes and the catalytic activity is quantified by first depleting the unused ATP, converting the hydrolyzed ADP into ATP to generate luminescence in a luciferase reaction; which is the basis of the ADP-Glo platform. Compounds are tested at either 10 μM or 1 μM top concentration, 11 points of 3-fold dilution. The data is normalized and the percent activity versus log concentration of compound is fitted with a 4-parameter logistic model to generate a curve and an IC50 value.

[2] = biological target: T2, human JAK1 kinase domain (JH1) (Homo sapiens, UniProt P23458); assay: JH1 biochemical assay for JAK1 (ADP-Glo kinase assay, recombinant JH1 catalytic domain, JAK3-342 peptide, 35 μM ATP)
T2 construct: recombinantly generated catalytic kinase (also known as JH1) domain of human JAK1, JAK2, JAK3 and TYK2
T2 sequence (P23458 875-1153 limits assumed): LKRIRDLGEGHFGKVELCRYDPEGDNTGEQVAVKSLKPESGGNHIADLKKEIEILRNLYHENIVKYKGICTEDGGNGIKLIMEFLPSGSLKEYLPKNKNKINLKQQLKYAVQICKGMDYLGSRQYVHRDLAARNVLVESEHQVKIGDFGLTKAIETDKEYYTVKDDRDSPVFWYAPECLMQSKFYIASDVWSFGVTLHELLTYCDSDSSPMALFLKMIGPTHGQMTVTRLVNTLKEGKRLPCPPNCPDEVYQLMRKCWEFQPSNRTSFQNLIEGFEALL
Description: as §1, §2

[3] = biological target: T3, human JAK2 kinase domain (JH1) (Homo sapiens, UniProt O60674); assay: JH1 biochemical assay for JAK2 (ADP-Glo kinase assay, recombinant JH1 catalytic domain, JAK3-974 peptide, 15 μM ATP)
T3 construct: recombinantly generated catalytic kinase (also known as JH1) domain of human JAK1, JAK2, JAK3 and TYK2
T3 sequence (O60674 849-1124 limits assumed): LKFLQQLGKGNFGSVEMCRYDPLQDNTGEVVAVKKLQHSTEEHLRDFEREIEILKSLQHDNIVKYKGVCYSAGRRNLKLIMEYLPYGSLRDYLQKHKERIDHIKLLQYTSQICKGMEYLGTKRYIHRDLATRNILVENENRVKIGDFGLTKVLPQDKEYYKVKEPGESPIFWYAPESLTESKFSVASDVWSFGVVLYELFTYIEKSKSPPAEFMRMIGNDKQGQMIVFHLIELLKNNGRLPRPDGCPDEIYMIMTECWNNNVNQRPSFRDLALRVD
Description: as §1, §2

[4] = biological target: T4, human JAK3 kinase domain (JH1) (Homo sapiens, UniProt P52333); assay: JH1 biochemical assay for JAK3 (ADP-Glo kinase assay, recombinant JH1 catalytic domain, JAK3-974 peptide, 4 μM ATP)
T4 construct: recombinantly generated catalytic kinase (also known as JH1) domain of human JAK1, JAK2, JAK3 and TYK2
T4 sequence (P52333 822-1111 limits assumed): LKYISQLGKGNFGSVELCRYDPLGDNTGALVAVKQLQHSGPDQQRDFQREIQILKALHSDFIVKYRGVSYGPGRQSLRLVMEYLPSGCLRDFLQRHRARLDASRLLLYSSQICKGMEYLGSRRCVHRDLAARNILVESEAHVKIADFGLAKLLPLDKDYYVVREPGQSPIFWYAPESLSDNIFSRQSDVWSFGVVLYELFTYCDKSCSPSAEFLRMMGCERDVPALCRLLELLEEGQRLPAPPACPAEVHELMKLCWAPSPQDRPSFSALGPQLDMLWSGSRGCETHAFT
Description: as §1, §2

For `Cn1cc(-c2cc3c(N4CC[C@@](C#N)(C5COC5)C4=O)ccnn3c2)cn1` (single isomer, unassigned) [Example 45], the IC50 ([1]; JH1 kinase domain, ADP-Glo) was > 0.1 µM, the IC50 ([2]; JH1 kinase domain, ADP-Glo) was > 10 µM and the IC50 ([3]; JH1 kinase domain, ADP-Glo) was > 10 µM. For the same compound, the IC50 ([4]; JH1 kinase domain, ADP-Glo) was > 10 µM.
For `COc1ncc(-c2cn3nccc3c(N3C[C@@H](C)[C@@](C#N)(C4CC4)C3=O)n2)cn1` [Example 240, (3R,4S)-3-cyclopropyl-1-(6-(2-methoxypyrimidin-5-yl)pyrazolo[1,5-a]pyrazin-4-yl)-4-methyl-2-oxopyrrolidine-3-carbonitrile trifluoroacetate], the IC50 ([1]; TYK2 JH1, ADP-Glo) was > 0.1 µM, the IC50 ([2]; JAK1 JH1, ADP-Glo) was > 10 µM and the IC50 ([3]; JAK2 JH1, ADP-Glo) was > 10 µM. The IC50 ([4]; JAK3 JH1, ADP-Glo) was > 10 µM.
In the case of `Cc1ncn(-c2cc3c(N4C[C@@H](C)[C@@](C#N)(C5CC5)C4=O)ccnn3c2)n1` [Example 342, (3R,4S)-3-cyclopropyl-4-methyl-1-(6-(3-methyl-1H-1,2,4-triazol-1-yl)pyrrolo[1,2-b]pyridazin-4-yl)-2-oxopyrrolidine-3-carbonitrile], the IC50 ([1]; TYK2 JH1, ADP-Glo) is reported as > 0.1 µM, the IC50 ([2]; JAK1 JH1, ADP-Glo) is reported as 1 to 5 µM and the IC50 ([3]; JAK2 JH1, ADP-Glo) is reported as 1 to 5 µM. It also gave an IC50 ([4]; JAK3 JH1, ADP-Glo) of 1 to 5 µM.
In the case of `CC[C@@H]1C[C@](C#N)(C2CC2)C(=O)N1c1ccnn2cc(-c3cnn(C)c3)cc12` [Example 33, (3R,5R)-3-cyclopropyl-5-ethyl-1-(6-(1-methyl-1H-pyrazol-4-yl)pyrrolo[1,2-b]pyridazin-4-yl)-2-oxopyrrolidine-3-carbonitrile], the IC50 ([1]; JH1 kinase domain, ADP-Glo) is reported as > 0.1 µM, the IC50 ([2]; JH1 kinase domain, ADP-Glo) is reported as 5 to 10 µM and the IC50 ([3]; JH1 kinase domain, ADP-Glo) is reported as 1 to 5 µM. The IC50 ([4]; JH1 kinase domain, ADP-Glo) was 5 to 10 µM.
In the case of `CCc1ccncc1-c1cc2c(N3C[C@@H](C)[C@@](C#N)(C4CC4)C3=O)ccnn2c1` [Example 175, (3R,4S)-3-cyclopropyl-1-(6-(4-ethylpyridin-3-yl)pyrrolo[1,2-b]pyridazin-4-yl)-4-methyl-2-oxopyrrolidine-3-carbonitrile trifluoroacetate], the IC50 ([1]; JH1 kinase domain, ADP-Glo) is reported as > 0.1 µM, the IC50 ([2]; JH1 kinase domain, ADP-Glo) is reported as 5 to 10 µM and the IC50 ([3]; JH1 kinase domain, ADP-Glo) is reported as > 10 µM. The IC50 ([4]; JH1 kinase domain, ADP-Glo) was > 10 µM.
In the case of `COc1cc(-c2cn3nccc3c(N3C[C@@H](C)[C@@](C#N)(C4CC4)C3=O)n2)ccn1` [Example 231, (3R,4S)-3-cyclopropyl-1-(6-(2-methoxy-pyridin-4-yl)pyrazolo[1,5-a]pyrazin-4-yl)-4-methyl-2-oxopyrrolidine-3-carbonitrile trifluoroacetate], the IC50 ([1]; TYK2 JH1, ADP-Glo) is reported as > 0.1 µM, the IC50 ([2]; JAK1 JH1, ADP-Glo) is reported as > 10 µM and the IC50 ([3]; JAK2 JH1, ADP-Glo) is reported as > 10 µM. The IC50 ([4]; JAK3 JH1, ADP-Glo) was > 10 µM.
For `COC[C@]1(C#N)CCN(c2ccnn3cc(-c4cnn(C)c4)cc23)C1=O` (single isomer, unassigned) [Example 41], the IC50 ([1]; JH1 kinase domain, ADP-Glo) was > 0.1 µM, the IC50 ([2]; JH1 kinase domain, ADP-Glo) was > 10 µM and the IC50 ([3]; JH1 kinase domain, ADP-Glo) was 5 to 10 µM. The IC50 ([4]; JH1 kinase domain, ADP-Glo) was 5 to 10 µM.
`C[C@@H]1CN(c2nc(-c3ccn(C)n3)cn3nccc23)C(=O)[C@]1(C#N)C1CC1` [Example 229, (3R,4S)-3-cyclopropyl-4-methyl-1-(6-(1-methyl-1H-pyrazol-3-yl)pyrazolo[1,5-a]pyrazin-4-yl)-2-oxopyrrolidine-3-carbonitrile trifluoroacetate] was tested, and the IC50 ([1]; TYK2 JH1, ADP-Glo) was > 0.1 µM, the IC50 ([2]; JAK1 JH1, ADP-Glo) was 1 to 5 µM and the IC50 ([3]; JAK2 JH1, ADP-Glo) was > 10 µM. The IC50 ([4]; JAK3 JH1, ADP-Glo) was 1 to 5 µM.
With `COc1cc(-c2cc3c(N4C[C@@H](C)[C@@](C#N)(C5CC5)C4=O)ccnn3c2)c(OC)nn1` [Example 98, (3R,4S)-3-cyclopropyl-1-(6-(3,6-dimethoxypyridazin-4-yl)pyrrolo[1,2-b]pyridazin-4-yl)-4-methyl-2-oxopyrrolidine-3-carbonitrile] the IC50 ([1]; JH1 kinase domain, ADP-Glo) was 0.05 to 0.1 µM, the IC50 ([2]; JH1 kinase domain, ADP-Glo) was 1 to 5 µM and the IC50 ([3]; JH1 kinase domain, ADP-Glo) was 1 to 5 µM. For the same compound, the IC50 ([4]; JH1 kinase domain, ADP-Glo) was 5 to 10 µM.
With `C[C@@H]1CN(c2ccnn3cc(-c4nccc(O)c4C#N)cc23)C(=O)[C@]1(C#N)C1CC1` [Example 129, 2-(4-((3R,4S)-3-cyano-3-cyclopropyl-4-methyl-2-oxopyrrolidin-1-yl)pyrrolo[1,2-b]pyridazin-6-yl)-4-hydroxynicotinonitrile trifluoroacetate] the IC50 ([1]; JH1 kinase domain, ADP-Glo) was > 0.1 µM, the IC50 ([2]; JH1 kinase domain, ADP-Glo) was > 10 µM and the IC50 ([3]; JH1 kinase domain, ADP-Glo) was > 10 µM. For the same compound, the IC50 ([4]; JH1 kinase domain, ADP-Glo) was > 10 µM.

Source: US20260297085A1, “1 H-PYRROLO[2,3-B]PYRIDIN-4-YL]-2-OXOPYRROLIDINE-3-CARBONITRILE DERIVATIVES AS TYROSINE KINASE 2 (TYK2) INHIBITORS FOR THE TREATMENT OF INFLAMMATORY DISEASES” (BIOGEN MA INC., priority 2023, published 2026)
